Here are results for 14 molecules from patent publication US12275688B2, “Crystalline solids of MEK inhibitor N-((R)-2,3-dihydroxypropoxy)-3,4-difluoro-2-(2-fluoro-4-iodo-phenylamino)-benzamide and uses thereof” (SpringWorks Therapeutics, Inc., priority 2021, dated 2025).

Format in all cases: physicochemical
Series [1] in a line: Solid-state stability of crystal forms at ambient conditions. The source says: The following sections describe and summarize the physical properties of each of the crystal forms observed for mirdametinib.
Series [2] in a line: Physical stability of amorphous mirdametinib on storage (PXRD, PLM). Here is the method: Solutions of mirdametinib (100 mg/mL) were prepared in methanol and THF, and each solution was divided into three equal parts to be used for 1) open at RT stability evaluation, 2) closed at RT stability evaluation, and 3) closed at −20° C. stability evaluation.
PXRD analyses of all six samples (three from both methanol and THF) following rapid evaporation indicated an amorphous state. Other analyses (e.g. PLM, TGA-IR, DSC) were performed on one sample from each solvent. Following initial analyses, one sample from each solvent was stored at RT in an open vial, at RT in a capped vial, and at −20° C. in a capped vial.

Series [3] is described as follows: Drying of certain forms via vacuum oven at 45° C. As to conditions: overnight in vacuum oven at 45° C.; PXRD at about 70% ambient lab humidity. Here is the method:
Drying studies for certain forms were conducted overnight in a vacuum oven at 45° C. After drying, samples were equilibrated to RT for 10 min. and analyzed by PXRD at about 70% ambient lab humidity.

Series [4] in a line: Desolvation/dehydration by heating in TGA pan to 100° C. Conditions: 15° C./min from 25 to 100° C., 5 min. hold at 100° C., air-cooled to RT. Here is the method: Desolvation/dehydration studies of certain forms were conducted in a TGA pan with loose lid at a heating rate of 15° C./min from 25 to 100° C. with a 5 min. hold at 100° C. Samples were air-cooled to RT on the TGA and analyzed by PXRD if crystalline. […] PXRD indicated Form I.

Series [5] is described as follows: Approximate kinetic solubility (visual, solvent aliquot addition). Conditions: thermodynamic from solid; for solubility: read-out: Solubility (mg/mL)at RT (23° C.); for solubility at 1 h: heated to 40° C. for 1 hour, read-out: Solubility (mg/mL) at 40° C. Here is the method: Solubility of mirdametinib prepared by Example 3 was assessed in 30 solvents. The solubility was visually estimated at room temperature (RT; ˜23° C.) by dosing small aliquots of solvent into a fixed amount of solid (˜10 mg) until the dissolution point or a maximum volume (1.8 mL) was reached. Samples that contained undissolved solids at RT were heated to 40° C. for 1 hour and the dissolution was assessed visually. The solubility data are shown below in Table 1.

Converted amounts (≈) assume the structure as drawn. “Also recorded” adds a separate entry of the source. Where two headings read alike, the source gives them in different places.

On to `O=C(NOC[C@H](O)CO)c1ccc(F)c(F)c1Nc1ccc(I)cc1F` [Form XX, N—((R)-2,3-dihydroxypropoxy)-3,4-difluoro-2-(2-fluoro-4-iodo-phenylamino)-benzamide], for which the “Time to convert to Form IV at ambient conditions” value in series [1] (ambient conditions) is reported as at most 10 days.

In the case of `O=C(NOC[C@H](O)CO)c1ccc(F)c(F)c1Nc1ccc(I)cc1F` [Form XIV, N—((R)-2,3-dihydroxypropoxy)-3,4-difluoro-2-(2-fluoro-4-iodo-phenylamino)-benzamide], the “Conversion at ambient conditions (in words)” value in series [1] (ambient conditions) was “convert to Form IV within four days”.

Turning to `O=C(NOC[C@H](O)CO)c1ccc(F)c(F)c1Nc1ccc(I)cc1F` [Form A-1b], in series [2] (capped vial at RT), the “Solid state by PXRD and PLM after one day” value (from here on “Solid state by PXRD and PLM”) is “no crystallization”.

In the case of `O=C(NOC[C@H](O)CO)c1ccc(F)c(F)c1Nc1ccc(I)cc1F` [Form XIX, N—((R)-2,3-dihydroxypropoxy)-3,4-difluoro-2-(2-fluoro-4-iodo-phenylamino)-benzamide], the “Stable in a capped vial for” value in series [1] (capped vial) is listed as at least 2 weeks. For the same molecule, the “Form after vacuum oven drying (PXRD)” value in series [3] was “Remained unchanged”. In addition, the “Result of desolvation/dehydration by heating” value in series [4] is “solid particles (not melted). PXRD indicated Form I”.

As to `O=C(NOC[C@H](O)CO)c1ccc(F)c(F)c1Nc1ccc(I)cc1F` [Form VIII, N—((R)-2,3-dihydroxypropoxy)-3,4-difluoro-2-(2-fluoro-4-iodo-phenylamino)-benzamide], the “Stable at ambient conditions for” value in series [1] (ambient conditions) is given as at least 2 days.

On to `O=C(NOC[C@H](O)CO)c1ccc(F)c(F)c1Nc1ccc(I)cc1F` [Form A-1], for which, in series [2], the “Results (solid form after 1 day at ambient)” value is given as “Amorphous”.

`O=C(NOC[C@H](O)CO)c1ccc(F)c(F)c1Nc1ccc(I)cc1F` [Form IX, N—((R)-2,3-dihydroxypropoxy)-3,4-difluoro-2-(2-fluoro-4-iodo-phenylamino)-benzamide]: the “Conversion at ambient conditions (in words)” value in series [1] (ambient conditions) is given as “significant conversion toward Form IV after 20 hours; also recorded: slowly convert to Form IV”.

As for `O=C(NOC[C@H](O)CO)c1ccc(F)c(F)c1Nc1ccc(I)cc1F` [Form XIII, N—((R)-2,3-dihydroxypropoxy)-3,4-difluoro-2-(2-fluoro-4-iodo-phenylamino)-benzamide], in series [3], the “Form after vacuum oven drying (PXRD)” value was “Form XIII/Form IV mixture converted to Form IV”.

Consider `O=C(NOC[C@H](O)CO)c1ccc(F)c(F)c1Nc1ccc(I)cc1F` [Form A-1a], for which, in series [2] (open vial at RT), the “Solid state by PXRD and PLM” value is on record as “no crystallization”.

Turning to `O=C(NOC[C@H](O)CO)c1ccc(F)c(F)c1Nc1ccc(I)cc1F` [A- 2], the “Results (solid form after 1 day at ambient)” value in series [2] was “Form IV”.

For `O=C(NOC[C@H](O)CO)c1ccc(F)c(F)c1Nc1ccc(I)cc1F` [Form A-2a], the “Solid state by PXRD and PLM” value in series [2] (open vial at RT) is given as “crystallization to Form IV”.

Consider `O=C(NOC[C@H](O)CO)c1ccc(F)c(F)c1Nc1ccc(I)cc1F` [Amorphous mirdametinib, N—((R)-2,3-dihydroxypropoxy)-3,4-difluoro-2-(2-fluoro-4-iodo-phenylamino)-benzamide], for which the “Physically stable for” value in series [2] (open and closed vials at RT) is listed as “at least 24 hours”.

For `O=C(NOC[C@H](O)CO)c1ccc(F)c(F)c1Nc1ccc(I)cc1F` [Form XXI, N—((R)-2,3-dihydroxypropoxy)-3,4-difluoro-2-(2-fluoro-4-iodo-phenylamino)-benzamide], the “Conversion noted under Nature of Solvate (Table 2)” value in series [1] is reported as “(converts to Form IV)”.

`O=C(NOC[C@H](O)CO)c1ccc(F)c(F)c1Nc1ccc(I)cc1F` [mirdametinib, N—((R)-2,3-dihydroxypropoxy)-3,4-difluoro-2-(2-fluoro-4-iodo-phenylamino)-benzamide]: the solubility was 101 to 202 mg/mL (≈ 209 to 419 mM) in series [5] (1-propanol, 23 °C, organic solvent or mixture); 97 to 194 mg/mL (≈ 201 to 402 mM) in series [5] (2-methyl-2-butanol, 23 °C, organic solvent or mixture); 98 to 196 mg/mL (≈ 203 to 406 mM) in series [5] (2-propanol (IPA), 23 °C, organic solvent or mixture); over 400 mg/mL in series [5] (23 °C, organic solvent or mixture, 2-Propanol: water (9:1 v/v)); over 408 mg/mL in series [5] (DMF (dimethylformamide), 23 °C, organic solvent or mixture); over 408 mg/mL in series [5] (Dioxane, 23 °C, organic solvent or mixture). Moreover, the solubility is over 424 mg/mL in series [5] (Ethanol/Water (9:1 v/v), 23 °C, organic solvent or mixture); 48 to 95 mg/mL (≈ 99.5 to 197 mM) in series [5] (MIBK (4-methyl-2-pentanone), 23 °C, organic solvent or mixture); under 6 mg/mL in series [5] (MTBE (methyl-t-butylether), 23 °C, organic solvent or mixture); over 408 mg/mL in series [5] (MeCN/Water (7:3 v/v), 23 °C, organic solvent or mixture); over 412 mg/mL in series [5] (MeCN/water (8:2 v/v), 23 °C, organic solvent or mixture); over 388 mg/mL in series [5] (acetic acid (HOAc), 23 °C, organic solvent or mixture). For the same molecule, the solubility is over 400 mg/mL in series [5] (acetone, 23 °C, organic solvent or mixture); 19 to 49 mg/mL (≈ 39.4 to 102 mM) in series [5] (acetonitrile (MeCN), 23 °C, organic solvent or mixture); under 6 mg/mL in series [5] (chloroform, 23 °C, organic solvent or mixture); under 6 mg/mL in series [5] (cyclohexane, 23 °C, organic solvent or mixture); under 6 mg/mL in series [5] (dichloromethane (DCM), 23 °C, organic solvent or mixture); over 388 mg/mL in series [5] (dimethyl sulfoxide (DMSO), 23 °C, organic solvent or mixture). In addition, the solubility was 10 to 19 mg/mL (≈ 20.7 to 39.4 mM) in series [5] (dimethylcarbonate (DMC), 23 °C, organic solvent or mixture); 208 to 416 mg/mL (≈ 431 to 863 mM) in series [5] (ethanol, 23 °C, organic solvent or mixture); 210 to 420 mg/mL (≈ 436 to 871 mM) in series [5] (ethanol/toluene (9:1), 23 °C, organic solvent or mixture); 48 to 95 mg/mL (≈ 99.5 to 197 mM) in series [5] (ethyl acetate (EtOAc), 23 °C, organic solvent or mixture); under 6 mg/mL in series [5] (isopropyl ether (IPE), 23 °C, organic solvent or mixture); over 380 mg/mL in series [5] (methanol (MeOH), 23 °C, organic solvent or mixture). Besides, the solubility in series [5] (nitromethane, 23 °C, organic solvent or mixture) was 10 to 20 mg/mL (≈ 20.7 to 41.5 mM); in series [5] (organic solvent or mixture, Tert-butanol (t-BuOH), solubility determined at 30° C. (footnote)), 6 to 10 mg/mL (≈ 12.4 to 20.7 mM); in series [5] (tetrahydrofuran (THF), 23 °C, organic solvent or mixture), over 396 mg/mL; in series [5] (toluene, 23 °C, organic solvent or mixture), under 6 mg/mL; in series [5] (trifluoroethanol (TFE), 23 °C, organic solvent or mixture) it was 7 to 12 mg/mL (≈ 14.5 to 24.9 mM); in series [5] (water, 23 °C, water), under 6 mg/mL. In addition, the solubility at 1 h in series [5] (organic solvent or mixture, Chloroform) is under 6 mg/mL; in series [5] (organic solvent or mixture, Cyclohexane), under 6 mg/mL; in series [5] (organic solvent or mixture, Dichloromethane (DCM)), over 6 mg/mL; in series [5] (organic solvent or mixture, Isopropyl ether (IPE)) it was under 6 mg/mL; in series [5] (organic solvent or mixture, MTBE (methyl-t-butylether)), over 6 mg/mL; in series [5] (organic solvent or mixture, Toluene), under 6 mg/mL. Besides, the solubility at 1 h in series [5] (Water) is under 6 mg/mL.
